Measured values as given in the NIST ThermoML archive (doi:10.1021/acs.jced.9b00100).
± gives the expanded uncertainty stated by the source.

Tests used:
[1] = Liquid, Ebulliometric method (Recirculating still)
[2] = refractive index (Na D-line) (dimensionless); settings: 293.15 K; 101.33 kPa; Liquid; Standard Abbe refractometry

Row | SMILES | vapor or sublimation pressure ([1]; 342.95 K) | vapor or sublimation pressure ([1]; 352.65 K) | vapor or sublimation pressure ([1]; 362.55 K) | refractive index [2] | vapor or sublimation pressure ([1]; 342.34 K) | vapor or sublimation pressure ([1]; 352.05 K) | vapor or sublimation pressure ([1]; 361.65 K)
1 | CCCCO [butan-1-ol] | 13.4 ± 0.24 kPa | 21.4 ± 0.24 kPa | 33.4 ± 0.25 kPa | 1.3989 ± 0.002 |  |  | 
2 | CCCC(C)=O [pentan-2-one] | 34.3 ± 0.34 kPa | 48.7 ± 0.27 kPa | 68.1 ± 0.31 kPa | 1.3893 ± 0.002 | 32.7 ± 0.34 kPa | 47.8 ± 0.27 kPa | 66.2 ± 0.31 kPa
3 | CCCO [propan-1-ol] |  |  |  | 1.3848 ± 0.002 | 31.5 ± 0.29 kPa | 49.5 ± 0.31 kPa | 73.2 ± 0.33 kPa
